Usually IC50 stands for the concentration that gives 50% inhibition. The term efflux ratio denotes a quotient of directional permeabilities that is used to spot active efflux.

Structures are written as SMILES. Like-named read-outs stand apart in the source and are kept apart here.

One data set has as its target T1, A2A receptor (Homo sapiens, UniProt P29274).
T1 construct: host or cells: HEK-293
Description: Inhibition of cAMP production in HEK cells (LANCE Ultra cAMP, TR-FRET). In kind it is cell-based. The conditions noted are these: HEK-293 cells with stable transfection of A2A receptor. As to the method:
When the A2A receptor is activated, is induces the production of cAMP. The present assay thus aims at showing that cAMP production is inhibited in HEK cells in response to their exposure to the compounds of the invention. HEK-293 cells with a stable transfection of A2A receptor were bought from PerkinElmer® (#ES-011-C). Cells were cultured in EMEM medium (Lonza, #BE12-611F) supplemented with 10% FBS (Lonza, #DE14-801F) and 200 μg/mL of G418 (Tocris, #4131) at 37° C. and 5% CO2. Fresh media without the selection marker was added on the day immediately before the experiment to stop selection pressure. cAMP inhibition and antagonist IC50 determination were accessed using the LANCE® Ultra cAMP Kit from PerkinElmer® (#TRF0262) on white half area 96 well plates (PerkinElmer®, #6005560). The assays were conducted in two different stimulation buffers: • a) normal with 1×HBSS (Gibco®, #141750-95), 5 mM HEPES (Lonza, #BE17-737E), 0.1% BSA and 25 μM Rolipram and • b) HSA with 1×HBSS (Gibco®, #141750-95), 5 mM HEPES (Lonza, #BE17-737E), 2% Human Serum Albumin (Sigma-Aldrich®—A1653), 30 μM of EHNA (Tocris—#1261) and 100 μM Rolipram. Stimulation buffer b) mimics the human situation by increasing the amount of albumin present in the assay. Compounds of the present invention were diluted 100× in either of the buffers depending on the assay performed. A total of 1000 cells per well were pre-incubated for 10 minutes with the compounds of the present invention before adding the corresponded EC80 of A2A agonist (3 nM of NECA in normal buffer) or 5 μM of Adenosine (in HAS buffer) for a total reaction time of 30 minutes. The total volume of the reaction was 20 μl (10 μl of cells, 5 μl of antagonist and 5 μl of agonist). The reaction was finalized by adding 10 μl of 4×EU-cAMP tracer working solution and 10 μl of 4× ULight-anti-cAMP working solution. The TR-FRET signal was measured after 1 hour using a Spectramax Paradigm (Molecular Devices).
Background: cAMP levels reflect the balance of adenylyl cyclase and phosphodiesterase activity.

Data set [1] in a line: Permeability and efflux in Caco-2 cells. The data set is classed as in vitro ADME. To be noted: human, Caco-2 monolayer, bidirectional transport, pH 7.4. As to the method:
The transport buffer (TB, pH 7.4) used in the study is Hank's Buffered Saline Solution (HBSS, Gibco, Cat #14025-076) with 10 mM HEPES at pH 7.4. Fetal bovine serum (FBS) (Corning, Cat #Corning-35-076-CV, or other vendors), Minimum Essential Media (MEM) (Gibco, Cat #41500-034) as well as its supplements are purchased from Invitrogen (Carlsbad, Calif., USA). Caco-2 cell line (Cat #HTB-37) is purchased from the ATCC (Rockville, Md., USA). The organic solvents used in the study are purchased from Sigma Aldrich (St. Louis, Mo., USA). For reference compounds (fenoterol, propranolol and digoxin) and test compounds, 0.4 mM intermediate solutions are prepared by diluting 10 mM or other appropriate concentrations of DMSO stock solutions with DMSO. 2 μM dosing solutions for reference compounds and test compounds are prepared by spiking the appropriate volume of intermediate solution to TB with and without 1 μM Zosuquidar. The final concentration of DMSO is no more than 1% (v/v). Caco-2 cells are grown in MEM supplemented with 2 mM L-glutamine, 10% FBS, 100 U/mL penicillin-G and 100 μg/mL streptomycin. The cells are incubated at 37° C., 5% CO2 and relatively saturated humidity. After reaching 80-90% confluency, the cells are gently detached with 0.05% trypsin-EDTA solution. Cells at passage 30-50 are seeded on the 96-well BD insert system (Cat #359274) at the density of 1×10^5 cells/cm2 and cultured for 21-28 days with medium changed every 4-5 days. TB and dosing solutions were pre-warmed to 37° C. before transport assay. The cell monolayer was washed twice with HBSS containing 10 mM HEPES. For A-B (apical to basolateral) directional transport assay, 75 μL dosing solution is added to the apical well. Fill each basolateral well with 250 μL TB. For B-A (basolateral to apical) directional transport assay, 250 μL of dosing solution is added to the basolateral well after filling each apical well with 75 μL TB. Test compound(s) and digoxin are tested at 2 μM in the presence or absence of 1 μM zosuquidar bidirectionally in duplicate. Atenolol and propranolol are tested at 2 μM in the absence of zosuquidar in A to B direction in duplicate. The plates are incubated for 120 minutes at 37° C. with 5% C02 and saturated humidity. The time zero samples are generated by mixing 50 μL initial dosing solution of test compound or reference compound with 100 μL TB and 250 μL quench solution (acetonitrile (ACN) or other appropriate solvent with internal standard(s), based on the bioanalytical method development). At 120 minutes, 150 μL of solution is collected from each A-B receiver well followed by addition of 250 μL quench solution to get A-B receiver sample. And for other samples (A-B donor, B-A donor and receiver), 50 μL of solution is collected from each corresponding well followed by addition of 250 μL quench solution and 100 μL TB. All samples are vortex-mixed and centrifuged at 3220 g for 20 minutes. Subsequently, supernatant is diluted with ultra pure water for LC-MS/MS analysis. The concentrations of test compound in all samples are determined by LC-MS/MS and expressed as peak area ratio of analyte to internal standard. The concentration of samples is expressed using the peak area ratio of Analyte to Internal Standard (Analyte/IS). The apparent permeability coefficient (Papp) is calculated using the following equation: Papp=VR/(Area*Time)*(CR/C0) wherein VR is the solution volume in the receiver chamber (0.075 mL on the apical side, 0.25 mL on the basolateral side); Area is the surface area for the transport, i.e. 0.0804 cm2 for the area of the monolayer; Time is incubation time, expressed in seconds, 2 h=2×3600 s; C0 is the initial concentration in the donor chamber; CR is the final concentrations in receiver chamber. The efflux ratio is calculated using the following equation: Efflux ratio=[…]) where Papp (A-B) and Papp (B-A) are the Papp values of compound in Apical to Basolateral and Basolateral to Apical directional transport, respectively.
A general note: Caco-2 cells form a polarised layer with tight junctions and transporters.

Setting [2] is: HSA stimulation buffer, 5 μM Adenosine as agonist, 2.0% HSA, read-out: IC50 (nM) (5 μM Adenosine as agonist, 2.0% HSA).
[3] abbreviates: normal stimulation buffer, 3 nM NECA as agonist, 0.1% BSA, read-out: IC50 (nM) (3 nM NECA as agonist, 0.1% BSA).

T1 sequence (P29274 whole entry): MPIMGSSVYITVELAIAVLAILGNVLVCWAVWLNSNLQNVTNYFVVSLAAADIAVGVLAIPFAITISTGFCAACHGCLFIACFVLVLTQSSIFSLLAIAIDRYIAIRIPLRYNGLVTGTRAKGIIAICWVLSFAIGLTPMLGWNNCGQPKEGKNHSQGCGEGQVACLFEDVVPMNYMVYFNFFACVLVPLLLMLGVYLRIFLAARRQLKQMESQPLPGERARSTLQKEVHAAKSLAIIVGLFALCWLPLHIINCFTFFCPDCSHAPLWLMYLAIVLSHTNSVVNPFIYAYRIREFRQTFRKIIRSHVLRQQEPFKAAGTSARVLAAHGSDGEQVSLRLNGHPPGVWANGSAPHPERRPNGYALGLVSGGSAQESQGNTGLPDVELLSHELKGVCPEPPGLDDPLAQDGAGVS

With `CN(CCN1CCN(c2cc(OCC[S@+](C)[O-])c(F)cc2F)CC1)c1nc(N)n2nc(-c3ccco3)nc2n1` [Compound 1, (S)—N5-(2-(4-(2,4-difluoro-5-(2-(methylsulfinyl)ethoxy)phenyl)piperazin-1-yl)ethyl)-2-(furan-2-yl)-N5-methyl-[1,2,4]triazolo[1,5-a][1,3,5]triazine-5,7-diamine], the IC50 on A2A receptor (setting [2]) was determined as 33 nM; on A2A receptor (setting [3]), 0.4 nM.
Take `CN(CCN1CCN(c2cc(OCC[S@@+](C)[O-])c(F)cc2F)CC1)c1nc(N)n2nc(-c3ccco3)nc2n1` [Compound 2, (R)—N5-(2-(4-(2,4-difluoro-5-(2-(methylsulfinyl)ethoxy)phenyl)piperazin-1-yl)ethyl)-2-(furan-2-yl)-N5-methyl-[1,2,4]triazolo[1,5-a][1,3,5]triazine-5,7-diamine]: the IC50 was determined as 28 nM at A2A receptor (setting [2]) and 0.6 nM at A2A receptor (setting [3]).
With `CNC(=O)c1cc(N2CCN(CCn3c(=O)n(C)c4c3nc(N)n3nc(-c5ccco5)nc43)CC2)c(F)cc1F` [Compound 3, 5-(4-(2-(5-amino-8-(furan-2-yl)-1-methyl-2-oxo-1H-[1,2,4]triazolo[5,1-i]purin-3(2H)-yl)ethyl)piperazin-1-yl)-2,4-difluoro-N-methylbenzamide], the IC50 turned out to be 176 nM at A2A receptor (setting [2]) and 0.1 nM at A2A receptor (setting [3]). In addition, the efflux ratio at 120 min, 2 μM in data set [1] was 53.
The like results for `CNC(=O)c1cc(N2CCN(CCn3ncc4c3nc(N)n3nc(-c5ccco5)nc43)CC2)c(F)cc1F` [Compound 4, 5-(4-(2-(5-amino-2-(furan-2-yl)-7H-pyrazolo[4,3-e][1,2,4]triazolo[1,5-c]pyrimidin-7-yl)ethyl)piperazin-1-yl)-2,4-difluoro-N-methylbenzamide] were, in that order, 150 nM, 0.3 nM and 8.
As to `CN(CCN1CCN(c2cc(OCCS(C)(=O)=O)c(F)cc2F)CC1)c1nc(N)n2nc(-c3ccco3)nc2n1` [Compound 5, N5-(2-(4-(2,4-difluoro-5-(2-(methylsulfonyl)ethoxy)phenyl)piperazin-1-yl)ethyl)-2-(furan-2-yl)-N5-methyl-[1,2,4]triazolo[1,5-a][1,3,5]triazine-5,7-diamine], the IC50 is 41 nM on A2A receptor (setting [2]) and 0.6 nM at A2A receptor (setting [3]). Moreover, the efflux ratio at 120 min, 2 μM in data set [1] is over 340.
On to `CS(=O)(=O)CCOc1cc(N2CCN(CCNc3nc(N)n4nc(-c5ccco5)nc4n3)CC2)c(F)cc1F` [Compound 6, N5-(2-(4-(2,4-difluoro-5-(2-(methylsulfonyl)ethoxy)phenyl)piperazin-1-yl)ethyl)-2-(furan-2-yl)-[1,2,4]triazolo[1,5-a][1,3,5]triazine-5,7-diamine], for which the values for the IC50 on A2A receptor (setting [2]) and on A2A receptor (setting [3]) were 63 nM and 0.9 nM, respectively.
With `Cn1c(=O)n(CCN2CCN(c3cc(OCC[S@+](C)[O-])c(F)cc3F)CC2)c2nc(N)n3nc(-c4ccco4)nc3c21` [Compound 7, (S)-5-amino-3-(2-(4-(2,4-difluoro-5-(2-(methylsulfinyl)ethoxy)phenyl)piperazin-1-yl)ethyl)-8-(furan-2-yl)-1-methyl-1H-[1,2,4]triazolo[5,1-i]purin-2-one], the IC50 turned out to be 64 nM at A2A receptor (setting [2]) and 0.3 nM at A2A receptor (setting [3]). For the same compound, the efflux ratio at 120 min, 2 μM in data set [1] is over 500.
With `Cn1c(=O)n(CCN2CCN(c3cc(OCC[S@@+](C)[O-])c(F)cc3F)CC2)c2nc(N)n3nc(-c4ccco4)nc3c21` [Compound 8, (R)-5-amino-3-(2-(4-(2,4-difluoro-5-(2-(methylsulfinyl)ethoxy)-phenyl)piperazin-1-yl)ethyl)-8-(furan-2-yl)-1-methyl-1H-[1,2,4]triazolo[5,1-i]purin-2-one], the IC50 at A2A receptor (setting [2]) was 70 nM; on A2A receptor (setting [3]) it was 0.3 nM. For the same compound, in data set [1], the efflux ratio at 120 min, 2 μM was over 400.
For `Cn1c(=O)n(CCN2CCN(c3cc(OCCS(C)(=O)=O)c(F)cc3F)CC2)c2nc(N)n3nc(-c4ccco4)nc3c21` [Compound 9, 5-amino-3-(2-(4-(2,4-difluoro-5-(2-(methylsulfonyl)ethoxy)phenyl)piperazin-1-yl)ethyl)-8-(furan-2-yl)-1-methyl-1H-[1,2,4]triazolo[5,1-i]purin-2(3H)-one] the same measures were 104 nM, 0.5 nM and over 300.
Turning to `Nc1nc(NCCN2CCN(c3cc(N4CC[S+]([O-])CC4)c(F)cc3F)CC2)nc2nc(-c3ccco3)nn12` [Compound 15, 4-(5-(4-(2-((7-amino-2-(furan-2-yl)-[1,2,4]triazolo[1,5-a][1,3,5]triazin-5-yl)amino)ethyl)piperazin-1-yl)-2,4-difluorophenyl)thiomorpholine 1-oxide], the IC50 on A2A receptor (setting [2]) amounted to 81 nM; at A2A receptor (setting [3]), 1.7 nM.
The like results for `C[S@@+]([O-])c1cc(N2CCN(CCNc3nc(N)n4nc(-c5ccco5)nc4n3)CC2)c(F)cc1F` [Compound 16, (R)—N5-(2-(4-(2,4-difluoro-5-(methylsulfinyl)phenyl)piperazin-1-yl)ethyl)-2-(furan-2-yl)-[1,2,4]triazolo[1,5-a][1,3,5]triazine-5,7-diamine] were, in that order, 73 nM and 7.4 nM.
The like results for `C[S@+]([O-])c1cc(N2CCN(CCNc3nc(N)n4nc(-c5ccco5)nc4n3)CC2)c(F)cc1F` [Compound 17, (S)—N5-(2-(4-(2,4-difluoro-5-(methylsulfinyl)phenyl)piperazin-1-yl)ethyl)-2-(furan-2-yl)-[1,2,4]triazolo[1,5-a][1,3,5]triazine-5,7-diamine] were, in that order, 201 nM and 1.8 nM.
